We go through seven compounds from publication PMC3596469 (European journal of pharmaceutical sciences : official …, 2013).

As usually defined, the MRT is the average time that molecules of a dose stay in the body. A word on the Tmax: it is the time from dosing to the highest level. A word on the Cmax: it is the highest concentration seen after dosing. A word on the IC50: it is the concentration that inhibits the measured activity by half. What is called AUC(0-t) is exposure summed from dosing to a finite time, without extrapolation to infinity. High values mean more exposure, low ones less exposure.

Like-named read-outs stand apart in the source and are kept apart here.

The conditions of data set [1]: mouse, in vivo, po, 1 mg/kg; cited from earlier work.
For data set [2], the system named is LPS-induced release of inflammatory cytokines in plasma. The data set can be described thus: Plasma cytokines in LPS-challenged murine model. It counts as in vivo, Male Swiss Webster mice.
The conditions of data set [3]: for oral bioavailability: from AUC values; for blood levels at the lowest oral dose: oral 0.1 mg/kg, 24 h sampling.
For data set [4], the system named is plasma epoxides and diols (biomarker of sEH action). The data set can be described thus: Plasma oxylipin profile. It counts as in vivo, Male Swiss Webster mice.
Data set [5] can be described thus: PK after i.v. injection in mice, 2-compartmental analysis. The following applies: i.v. 0.01 mg/kg.
Data set [6] deals with LPS-challenged mice. The data set can be described thus: Food intake and body weight in LPS-challenged murine model. In kind it is in vivo, Male Swiss Webster mice. The following applies: for animals' appetite, 1st day post LPS challenge: oral administration.
The conditions of data set [7]: mouse, in vivo, po.
Data set [8] deals with T1, Human sEH (Homo sapiens, UniProt P34913).
T1 sequence (P34913 1-555): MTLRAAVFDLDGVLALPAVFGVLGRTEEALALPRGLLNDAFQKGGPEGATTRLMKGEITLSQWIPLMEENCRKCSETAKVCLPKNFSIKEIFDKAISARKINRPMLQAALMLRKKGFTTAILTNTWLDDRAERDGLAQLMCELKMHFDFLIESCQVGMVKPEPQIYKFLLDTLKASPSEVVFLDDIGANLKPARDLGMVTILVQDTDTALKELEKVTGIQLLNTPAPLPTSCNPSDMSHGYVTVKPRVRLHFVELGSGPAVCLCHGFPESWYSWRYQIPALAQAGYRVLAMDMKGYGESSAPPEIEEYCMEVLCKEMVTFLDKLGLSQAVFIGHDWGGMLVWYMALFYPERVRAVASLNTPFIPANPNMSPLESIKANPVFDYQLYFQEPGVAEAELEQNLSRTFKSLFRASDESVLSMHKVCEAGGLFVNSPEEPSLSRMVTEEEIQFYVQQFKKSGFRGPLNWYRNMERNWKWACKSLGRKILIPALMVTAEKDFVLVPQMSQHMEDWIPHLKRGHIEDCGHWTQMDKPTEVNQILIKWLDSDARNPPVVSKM
The data set can be described thus: Radioactive sEH inhibition assay. It counts as biochemical. As to conditions: read-out: IC50 Human sEH (value in parentheses); [3H] t-DPPO as substrate.

Setting [9] is: LPS 3 mg/kg + inhibitor 3 mg/kg single dose, terminated 48 h.
[10] abbreviates: LPS 3 mg/kg + inhibitor 3 mg/kg, terminated 24 h.
Setting [11] is: mice, oral gavage 0.1 mg/kg, blood.
Setting [12] is: mice, oral gavage 0.3 mg/kg, blood.
The mark [13] stands for this setting: mice, oral gavage 1.0 mg/kg, blood.
Where [14] appears, read: mice, oral gavage 3.0 mg/kg, blood.
The mark [15] stands for this setting: male, Swiss Webster, mouse, whole blood, po, 0.1 mg/kg.
[16] abbreviates: male, Swiss Webster, mouse, whole blood, po, 0.3 mg/kg.
[17] abbreviates: male, Swiss Webster, mouse, whole blood, po, 1 mg/kg.
[18] abbreviates: male, Swiss Webster, mouse, whole blood, po, 3 mg/kg.

As for `CC(=O)N1CCC(NC(=O)NC23CC4CC(CC(C4)C2)C3)CC1` [APAU, 1-(1-acetypiperidin-4-yl)-3-adamantanylurea], in data set [1], the AUCt was 1.4±0.3 0.35±0.15 uM•h and the MRT is given as 20±4.2 22.2±4.3 h.
With `CCC(=O)N1CCC(NC(=O)Nc2ccc(OC(F)(F)F)cc2)CC1` [TPPU, 1-(4-trifluoro-methoxy-phenyl)-3-(1-propionylpiperidin-4-yl)urea], the IL-6 in plasma in data set [2] (setting [9]) was determined as 9 ± 0.5 pg/mL; in data set [2] (setting [10]), 118 ± 65 pg/mL. Further, the results for the IL-10 in plasma in data set [2] (setting [9]) and in data set [2] (setting [10]) were 7.7 ± 0.5 pg/mL and 8.7 ± 0.4 pg/mL, respectively. Moreover, the INF-γ in plasma in data set [2] (setting [9]) amounted to 2.0 ± 0.5 pg/mL; in data set [2] (setting [10]), 9.7 ± 3.0 pg/mL. For the same compound, the MCP-1 in plasma in data set [2] (setting [9]) came to 260 ± 50 pg/mL; in data set [2] (setting [10]), 1970 ± 900 pg/mL. Also, the TNF-α in plasma in data set [2] (setting [9]) amounted to 11 ± 1 pg/mL; in data set [2] (setting [10]) it was 28 ± 14 pg/mL. In addition, the “reduction of cytokine or chemokine release one day after treatment” value in data set [2] (LPS-challenged mice) is on record as “Neither the administration of TPPU nor the t-AUCB treatment demonstrated a beneficial effect”. Also, the oral bioavailability was 43 ± 25% in data set [3] (mice, oral 0.1 mg/kg vs i.v. 0.01 mg/kg); 36 ± 5% in data set [3] (mice, oral 0.3 mg/kg vs i.v. 0.01 mg/kg); 31 ± 2% in data set [3] (mice, oral 1.0 mg/kg vs i.v. 0.01 mg/kg); 18 ± 3% in data set [3] (mice, oral 3.0 mg/kg vs i.v. 0.01 mg/kg). Besides, the “blood levels at the lowest oral dose” value in data set [3] (mice) is recorded as “above their in vitro IC50 values throughout the sampling time”. Moreover, the MRT in data set [3] (mice, oral gavage 0.1 mg/kg) worked out at 56.9 ± 5.4 h; in data set [3] (mice, oral gavage 0.3 mg/kg), 69.5 ± 2.2 h; in data set [3] (mice, oral gavage 1.0 mg/kg) it was 26.8 ± 2.2 h; in data set [3] (mice, oral gavage 3.0 mg/kg) it was 24.0 ± 0.2 h. Also, the Tmax was found to be 2 ± 0 h in data set [3] (mice, oral gavage 0.1 mg/kg); 2 ± 0 h in data set [3] (mice, oral gavage 0.3 mg/kg); 2.7 ± 1.2 h in data set [3] (mice, oral gavage 1.0 mg/kg); 3.7 ± 1.8 h in data set [3] (mice, oral gavage 3.0 mg/kg). The Cmax in data set [3] (setting [11]) was 445 ± 200 nM; in data set [3] (setting [12]), 1560 nM; in data set [3] (setting [13]), 5370 nM; in data set [3] (setting [14]), 7100 nM. Besides, the “plasma levels of both EETs and EpOMEs” value in data set [4] (1- and 2-day post treatment, LPS-challenged mice) is “significantly increased”. Also, the “plasma levels of both DHOMEs and DHETs” value in data set [4] (2-day post LPS treatment) is listed as “significantly decreased”. The same compound registered an AUCt in data set [5] of 3.5 ± 0.4 µM·h. Also, the “Cl (clearance)” value in data set [5] was 20 ± 1.7 mL/min/kg. Besides, the “T1/2β (half life of elimination phase)” value in data set [5] was above 24 h. Also, the “Vdss (volume distribution at steady state)” value in data set [5] turned out to be 4.8 ± 1.8 L/kg. Besides, the “animal's appetite (pilot study)” value in data set [6] (1 mg/kg) is reported as “no favorable effect was observed”. Further, the “animal's appetite at 2 days post treatment (pilot study)” value in data set [6] (oral 3 mg·kg^-1) was “improved”. In addition, the “animals' appetite, 1st day post LPS challenge” value in data set [6] (LPS-challenged mice) is “did not improve”. Besides, the “animals' appetite, 2nd day post LPS challenge” value in data set [6] (oral, TPPU 3 mg/kg once, t-AUCB 3 mg/kg twice, LPS-challenged mice) is “significantly improved”.
Take “1-chlorophenyl-3-(1-propionylpiperidin-4-yl)urea [CPPU]”: the AUCt was determined as 2.3 ± 0.4 µM·h in data set [7] (0.1 mg/kg), 6.1 ± 1.7 µM·h in data set [7] (0.3 mg/kg), 31.7 ± 18.4 µM·h in data set [7] (1 mg/kg) and 140 ± 93 µM·h in data set [7] (3 mg/kg). The MRT came out at 13.1 ± 13.5 h in data set [7] (0.1 mg/kg), 16.4 ± 6.3 h in data set [7] (0.3 mg/kg), 17.2 ± 7.3 h in data set [7] (1 mg/kg) and 17.1 ± 1.3 h in data set [7] (3 mg/kg). Moreover, in data set [8], the IC50 is 280 nM.
For `O=C(Nc1ccc(OC(F)(F)F)cc1)N[C@H]1CC[C@H](Oc2ccc(C(=O)O)cc2)CC1` [t-TUCB, trans-4-[4-[3-(4-Trifluoromethoxy-phenyl)-Ureido]-cyclohexyloxy]-Benzoic acid], the Cmax in data set [3] (setting [15]) was below 0.4 nM. Also, in data set [3] (setting [16]), the AUC(0-t) came to 0.4 µM·h, the peak level (Cmax) was 45 nM, the MRT is 12.6 h and the Tmax came to 6 h. In addition, in data set [3] (setting [17]), the AUC(0-t) was determined as 4.5 µM·h, the Cmax worked out at 410 nM, the MRT was found to be 12.6 h and the time of peak concentration (Tmax) was 5.9 h. In data set [3] (setting [18]), the AUC(0-t) is 16.1 µM·h, the Cmax stood at 2120 nM, the MRT stood at 8 h and the Tmax was determined as 2.6 h. In addition, in data set [3] (mice), the “blood levels at the lowest oral dose” value is reported as “under the respective detection limit”.
With `O=C(Nc1ccc(OC(F)(F)F)cc1)NC1CCN(C(=O)C2CC2)CC1` [TCPU, 1-(4-trifluoro-methoxy-phenyl)-3-(1-cyclopropanecarboxylpiperidin-4-yl)urea], the AUCt was determined as 2.2 ± 1.1 µM·h in data set [3] (mice, oral gavage 0.1 mg/kg); 16.6 ± 8.8 µM·h in data set [3] (mice, oral gavage 0.3 mg/kg); 43.8 ± 5.1 µM·h in data set [3] (mice, oral gavage 1.0 mg/kg); 94.3 ± 8.0 µM·h in data set [3] (mice, oral gavage 3.0 mg/kg). For the same compound, the MRT came out at 18.9 ± 6.6 h in data set [3] (mice, oral gavage 0.1 mg/kg); 16.9 ± 5.4 h in data set [3] (mice, oral gavage 0.3 mg/kg); 24.0 ± 1.8 h in data set [3] (mice, oral gavage 1.0 mg/kg); 32.1 ± 5.6 h in data set [3] (mice, oral gavage 3.0 mg/kg). The Tmax in data set [3] (mice, oral gavage 0.1 mg/kg) turned out to be 5.3 ± 1.2 h; in data set [3] (mice, oral gavage 1.0 mg/kg), 3.2 ± 2.2 h; in data set [3] (mice, oral gavage 3.0 mg/kg), 3.9 ± 2.5 h. The Cmax in data set [3] (setting [11]) is 270 ± 120 nM; in data set [3] (setting [12]) it was 1680 nM; in data set [3] (setting [13]), 2560 nM; in data set [3] (setting [14]), 5160 nM.
On to `O=C(NC12CC3CC(CC(C3)C1)C2)N[C@H]1CC[C@H](Oc2ccc(C(=O)O)cc2)CC1` [t-AUCB, trans-4-[4-(3-adamantan-1-yl-ureido)-cyclohexyloxy]-benzoic acid, reference compound], for which, in data set [6] (LPS-challenged mice), the “animals' appetite, 1st day post LPS challenge” value is “did not improve”.
Regarding `CS(=O)(=O)N1CCC(NC(=O)Nc2ccc(OC(F)(F)F)cc2)CC1` [TUPS, 1-(1-methanesulfonyl-piperidin-4-yl)-3-(4-trifluoromethoxy-phenyl)-urea], the values for the Cmax in data set [3] (setting [15]), in data set [3] (setting [17]) and in data set [3] (setting [18]) were below 0.4 nM, 1650 nM and 2860 nM, respectively. The AUC(0-t) in data set [3] (setting [16]) was 5.3 µM·h; in data set [3] (setting [17]), 24.2 µM·h; in data set [3] (setting [18]) it was 48.5 µM·h. Also, the MRT was 21.5 h in data set [3] (setting [16]), 17.4 h in data set [3] (setting [17]) and 22.7 h in data set [3] (setting [18]). Further, the “blood levels at the lowest oral dose” value in data set [3] (mice) was “under the respective detection limit”.
